Results as given in ChEMBL document CHEMBL1150635, “Cytotoxic pyrrolo- and furanoterpenoids from the sponge sarcotragus species” (2002).
≈ marks a conversion by molar mass, not a printed value.

Key:
Type in all cases: functional
Settings in all cases: read-out: ED50 (the source's name)
[1] = system: HCT-15; assay: Cytotoxicity against human HCT15 cells
[2] = system: SK-MEL-2; assay: Cytotoxicity against human SK-MEL-2 cells
[3] = system: XF498; assay: Cytotoxicity against human XF498 cells
[4] = system: A549; assay: Cytotoxicity against human A549 cells
[5] = system: SK-OV-3; assay: Cytotoxicity against human SKOV3 cells

## CCC(C)CN1CC=C(CCC/C(C)=C/C=C/[C@@H](C)CC/C=C(/C)C[C@H]2OC(=O)C(C)=C2O)C1=O (stereo not given in full)
[1]
  EC50: 22.3 µg/mL (≈ 46.1 µM)
[2]
  EC50: 15.9 µg/mL (≈ 32.9 µM)
[3]
  EC50: 25.2 µg/mL (≈ 52.1 µM)
[4]
  EC50: 27.1 µg/mL (≈ 56 µM)
[5]
  EC50: 26.8 µg/mL (≈ 55.4 µM)

## COc1cccc2c1C(=O)c1c(O)c3c(c(O)c1C2=O)C[C@@](O)(C(=O)CO)C[C@@H]3O[C@H]1C[C@H](N)[C@H](O)[C@H](C)O1 [DOXORUBICIN]
[1]
  EC50: 0.06 µg/mL (≈ 0.11 µM)
[2]
  EC50: 0.02 µg/mL (≈ 0.0368 µM)
[3]
  EC50: 0.13 µg/mL (≈ 0.239 µM)
[4]
  EC50: 0.02 µg/mL (≈ 0.0368 µM)
[5]
  EC50: 0.16 µg/mL (≈ 0.294 µM)

## CC1=C(O)[C@@H](C/C(C)=C\CC[C@H](C)/C=C/C=C(\C)CCCc2ccoc2)OC1=O [EPI-SARCOTIN A]
[1]
  EC50: 6.5 µg/mL (≈ 16.3 µM)
[2]
  EC50: 5.6 µg/mL (≈ 14.1 µM)
[3]
  EC50: 9.8 µg/mL (≈ 24.6 µM)
[4]
  EC50: 12.3 µg/mL (≈ 30.9 µM)
[5]
  EC50: 9.6 µg/mL (≈ 24.1 µM)

## CC1=C(O)[C@@H](C/C(C)=C\CC[C@H](C)/C=C/C=C(\C)CCCC2=CCN(CCC(C)C)C2=O)OC1=O [EPI-SARCOTRINE A]
[1]
  EC50: 3.8 µg/mL (≈ 7.86 µM)
[2]
  EC50: 3.4 µg/mL (≈ 7.03 µM)
[3]
  EC50: 3.9 µg/mL (≈ 8.06 µM)
[4]
  EC50: 4.3 µg/mL (≈ 8.89 µM)
[5]
  EC50: 4 µg/mL (≈ 8.27 µM)

## CC1=C(O)[C@@H](C/C(C)=C\CC[C@H](C)/C=C/C=C(\C)CCCC2=CCN(CCc3ccccc3)C2=O)OC1=O [EPI-SARCOTRINE B]
[1]
  EC50: 5.4 µg/mL (≈ 10.4 µM)
[2]
  EC50: 4.8 µg/mL (≈ 9.27 µM)
[3]
  EC50: 10.5 µg/mL (≈ 20.3 µM)
[4]
  EC50: 16.8 µg/mL (≈ 32.5 µM)
[5]
  EC50: 13.1 µg/mL (≈ 25.3 µM)

## COC1C=C(CCC/C(C)=C/C=C/[C@@H](C)CC/C=C(/C)C[C@@H]2OC(=O)C(C)=C2O)C(=O)O1 (stereo not given in full) [SARCOTIN F]
[1]
  EC50: 10.5 µg/mL (≈ 23.6 µM)
[2]
  EC50: 7.6 µg/mL (≈ 17.1 µM)
[3]
  EC50: 20.1 µg/mL (≈ 45.2 µM)
[4]
  EC50: 24.1 µg/mL (≈ 54.2 µM)
[5]
  EC50: 15.2 µg/mL (≈ 34.2 µM)

## CO[C@]1(Cc2ccoc2)C=C(CC/C=C(\C)CCC[C@@H](C)/C=C2\OC(=O)C(C)=C2O)C(=O)O1 [SARCOTIN G]
[1]
  EC50: 7.3 µg/mL (≈ 16 µM)
[2]
  EC50: 5.1 µg/mL (≈ 11.2 µM)
[3]
  EC50: 7.6 µg/mL (≈ 16.6 µM)
[4]
  EC50: 9.1 µg/mL (≈ 19.9 µM)
[5]
  EC50: 10 µg/mL (≈ 21.9 µM)

## CO[C@]1(Cc2ccoc2)C=C(CCC/C(C)=C\CC[C@@H](C)/C=C2\OC(=O)C(C)=C2O)C(=O)O1 [SARCOTIN H]
[1]
  EC50: 6.1 µg/mL (≈ 13.4 µM)
[2]
  EC50: 5.9 µg/mL (≈ 12.9 µM)
[3]
  EC50: 6.3 µg/mL (≈ 13.8 µM)
[4]
  EC50: 6.7 µg/mL (≈ 14.7 µM)
[5]
  EC50: 6.8 µg/mL (≈ 14.9 µM)

## C/C(=C/CC[C@@H](C)/C=C/C=C(\C)CCCc1ccoc1)CC(O)C(=O)[O-].[Na+] (stereo not given in full) [SARCOTIN I]
[1]
  EC50: 23.7 µg/mL
[2]
  EC50: 25.7 µg/mL
[3]
  EC50: 25.9 µg/mL
[4]
  EC50: 24.8 µg/mL
[5]
  EC50: 23.3 µg/mL

## COC(=O)C(O)C/C(C)=C\CC[C@H](C)/C=C/C=C(\C)CCCc1ccoc1 (stereo not given in full) [SARCOTIN J]
[1]
  EC50: 8.7 µg/mL (≈ 23.2 µM)
[2]
  EC50: 7.8 µg/mL (≈ 20.8 µM)
[3]
  EC50: 24.3 µg/mL (≈ 64.9 µM)
[4]
  EC50: 18.1 µg/mL (≈ 48.3 µM)
[5]
  EC50: 10 µg/mL (≈ 26.7 µM)

## COC(/C=C/[C@@H](C)CC/C=C(/C)C[C@@H]1OC(=O)C(C)=C1O)C(C)(O)CCCc1ccoc1 (stereo not given in full) [SARCOTIN M]
[1]
  EC50: 10.1 µg/mL (≈ 22.6 µM)
[2]
  EC50: 9.9 µg/mL (≈ 22.2 µM)
[3]
  EC50: 11.3 µg/mL (≈ 25.3 µM)
[4]
  EC50: 9 µg/mL (≈ 20.2 µM)
[5]
  EC50: 8.4 µg/mL (≈ 18.8 µM)

## CC1=C(O)[C@H](C/C(C)=C\CC[C@H](C)/C=C/C=C(\C)CCCC2=CCN(CCC(C)C)C2=O)OC1=O [SARCOTRINE A]
[1]
  EC50: 5 µg/mL (≈ 10.3 µM)
[2]
  EC50: 4.1 µg/mL (≈ 8.48 µM)
[3]
  EC50: 5.5 µg/mL (≈ 11.4 µM)
[4]
  EC50: 15.1 µg/mL (≈ 31.2 µM)
[5]
  EC50: 5.3 µg/mL (≈ 11 µM)

## CC1=C(O)[C@H](C/C(C)=C\CC[C@H](C)/C=C/C=C(\C)CCCC2=CCN(CCc3ccccc3)C2=O)OC1=O [SARCOTRINE B]
[1]
  EC50: 4.9 µg/mL (≈ 9.46 µM)
[2]
  EC50: 4.3 µg/mL (≈ 8.31 µM)
[3]
  EC50: 5.2 µg/mL (≈ 10 µM)
[4]
  EC50: 6.3 µg/mL (≈ 12.2 µM)
[5]
  EC50: 6.7 µg/mL (≈ 12.9 µM)

## CCC(C)CN1CC=C(CCC/C(C)=C/C=C/[C@@H](C)CC/C=C(/C)C[C@@H]2OC(=O)C(C)=C2O)C1=O (stereo not given in full) [SARCOTRINE C]
[1]
  EC50: 5.3 µg/mL (≈ 11 µM)
[2]
  EC50: 3.8 µg/mL (≈ 7.86 µM)
[3]
  EC50: 5.4 µg/mL (≈ 11.2 µM)
[4]
  EC50: 19 µg/mL (≈ 39.3 µM)
[5]
  EC50: 6.9 µg/mL (≈ 14.3 µM)

## CC1=C(O)[C@H](C/C(C)=C\CC[C@H](C)/C=C/C=C(\C)CCCC2=CC(=O)N(CCC(C)C)C2)OC1=O [SARCOTRINE D]
[1]
  EC50: 21.6 µg/mL (≈ 44.7 µM)
[2]
  EC50: 13.2 µg/mL (≈ 27.3 µM)
[3]
  EC50: > 30 µg/mL
[4]
  EC50: > 30 µg/mL
[5]
  EC50: 25.9 µg/mL (≈ 53.5 µM)
